Literature values in patent US5173423A, “Process for breeding a glabrous variety of rice crop and a glabrous plant” (Sumitomo Chemical Company Limited, priority 1990, dated 1992).

Test system: Ginbozu
Conditions: mutation breeding; induced variation: chlorosis; variety Ginbozu

Row | SMILES | Frequency of occurrence of variants [%]
1 | Nc1ncc2[nH]cnc2n1 [2-AP, 2-aminopurine] | 0.57
2 | O=c1[nH]cc(Br)c(=O)[nH]1 [5-BU, 5-bromouracil] | 1.0
